Columns and labels:
[1] = system: Puccinia recondita f. sp. tritici; experiment: Puccinia recondita f. sp. tritici / wheat / leaf disc preventative (brown rust); type: in vivo; details: foliar, wheat cv Kanzler leaf segments, inoculated 1 day after application, assessed 7-9 days after application, read-out: control of Puccinia recondita f. sp. tritici (percent disease control compared to untreated)
Procedure: Puccinia recondita f. sp. tritici/Wheat/Leaf Disc Preventative (Brown Rust) Wheat leaf segments cultivated variety (cv) Kanzler were placed on agar in 24-well plates and sprayed with formulated test compound diluted in water at an application rate of 200 ppm. The leaf disks were inoculated with a spore suspension of the fungus 1 day after application. The inoculated leaf segments were incubated at 19° C. and 75% relative humidity under a light regime of 12/12 h (light/dark) in a climate cabinet and the activity of a compound was assessed as percent disease control compared to untreated when an appropriate level of disease damage appears in untreated check leaf segments (7-9 days after application). […].103

[2] = system: Glomerella lagenarium (Colletotrichum lagenarium); experiment: Glomerella lagenarium (Colletotrichum lagenarium) / liquid culture (anthracnose); type: cell-based; details: Colletotrichum orbiculare, PDB potato dextrose broth, 96-well plate, 24° C., 3-4 days after application, read-out: control of Glomerella lagenarium (inhibition of growth, photometric)
[3] = system: Mycosphaerella arachidis (Cercospora arachidicola); experiment: Mycosphaerella arachidis (Cercospora arachidicola) / liquid culture (early leaf spot); type: cell-based; details: PDB potato dextrose broth, 96-well plate, 24° C., 4-5 days after application, read-out: control of Mycosphaerella arachidis (inhibition of growth, photometric)
[4] = system: Botryotinia fuckeliana (Botrytis cinerea); experiment: Botryotinia fuckeliana (Botrytis cinerea) / liquid culture (gray mould); type: cell-based; details: Vogels broth, 96-well plate, 24° C., 3-4 days after application, read-out: control of Botryotinia fuckeliana (inhibition of growth, photometric)
[5] = system: Blumeria graminis f. sp. tritici (Erysiphe graminis f. sp. tritici); experiment: Blumeria graminis f. sp. tritici (Erysiphe graminis f. sp. tritici) / wheat / leaf disc preventative (powdery mildew on wheat); type: in vivo; details: foliar, wheat cv. Kanzler leaf segments, inoculated 1 day after application, assessed 6-8 days after application, read-out: control of Blumeria graminis (percent disease control compared to untreated)
[6] = system: Gaeumannomyces graminis; experiment: Gaeumannomyces graminis / liquid culture (take-all of cereals); type: cell-based; details: liquid culture of mycelial fragments, PDB potato dextrose broth, 96-well plate, 24° C., 4-5 days after application, read-out: control of Gaeumannomyces graminis (inhibition of growth, photometric)
[7] = system: Mycosphaerella graminicola (Septoria tritici); experiment: Mycosphaerella graminicola (Septoria tritici) / liquid culture (Septoria blotch); type: cell-based; details: Zymoseptoria tritici, PDB potato dextrose broth, 96-well plate, 24° C., 4-5 days after application, read-out: control of Mycosphaerella graminicola (inhibition of growth, photometric)
[8] = system: Monographella nivalis (Microdochium nivale); experiment: Monographella nivalis (Microdochium nivale) / liquid culture (foot rot cereals); type: cell-based; details: PDB potato dextrose broth, 96-well plate, 24° C., 4-5 days after application, read-out: control of Monographella nivalis (inhibition of growth, photometric)
Procedure: Monographella nivalis (Microdochium nivale)/Liquid Culture (Foot Rot Cereals): Conidia of the fungus from cryogenic storage were directly mixed into nutrient broth (PDB potato dextrose broth). After placing a DMSO solution of test compound into a 96-well microtiter plate at an application rate of 200 ppm, the nutrient broth containing the fungal spores was added. The test plates were incubated at 24° C. and the inhibition of growth was determined photometrically 4-5 days after application. […].103

[9] = system: Puccinia recondita f. sp. tritici; experiment: Puccinia recondita f. sp. tritici / wheat / leaf disc curative (brown rust); type: in vivo; details: foliar, wheat cv Kanzler leaf segments, applied 1 day after inoculation, assessed 6-8 days after application, read-out: control of Puccinia recondita f. sp. tritici (percent disease control compared to untreated)
Procedure: Puccinia recondita f. sp. tritici/Wheat/Leaf Disc Curative (Brown Rust): Wheat leaf segments cv Kanzler were placed on agar in 24-well plates. The leaf segments were inoculated with a spore suspension of the fungus. The plates were stored in darkness at 19° C. and 75% relative humidity. The formulated test compound diluted in water was applied at an application rate of 200 ppm 1 day after inoculation.

[10] = system: Pyrenophora teres; experiment: Pyrenophora teres / barley / leaf disc preventative (net blotch); type: in vivo; details: foliar, barley cv Hasso leaf segments, inoculated two days after application, assessed 5-7 days after application, read-out: control of Pyrenophora teres (disease control compared to untreated)
[11] = system: Phaeosphaeria nodorum (Septoria nodorum); experiment: Phaeosphaeria nodorum (Septoria nodorum) / wheat / leaf disc preventative (glume blotch); type: in vivo; details: Parastagonospora nodorum, foliar, wheat cv Kanzler leaf segments, inoculated 2 days after application, assessed 5-7 days after application, read-out: control of Phaeosphaeria nodorum (percent disease control compared to untreated)
[12] = system: Thanatephorus cucumeris (Rhizoctonia solani); experiment: Thanatephorus cucumeris (Rhizoctonia solani) / liquid culture (foot rot, damping-off); type: cell-based; details: liquid culture of mycelia fragments, PDB potato dextrose broth, 96-well plate, 24° C., 3-4 days after application, read-out: control of Thanatephorus cucumeris (inhibition of growth, photometric)
Procedure: Thanatephorus cucumeris (Rhizoctonia solani)/Liquid Culture (Foot Rot, Damping-Off): Mycelia fragments of a newly grown liquid culture of the fungus are directly mixed into nutrient broth (PDB potato dextrose broth). After placing a DMSO solution of the test compounds into a 96-well microtiter plate at an application rate of 200 ppm, the nutrient broth containing the fungal material was added. The test plates were incubated at 24° C. and the inhibition of growth was determined photometrically 3-4 days after application.

[13] = system: Magnaporthe grisea (Pyricularia oryzae); experiment: whole plant or invertebrate; type: in vivo; details: foliar, read-out: control of Magnaporthe grisea (percent disease control compared to untreated)

CCC(CO/N=C(\C)c1cccc(C)n1)Cc1cccc(/C(C)=N/OC)n1 (centres unmarked) [P.04]
≥ 80%: pest or weed control at 200 ppm [1] | inhibition at 200 ppm [2] | inhibition at 200 ppm [3] | inhibition at 200 ppm [4] | pest or weed control at 200 ppm [5] | inhibition at 200 ppm [6] | inhibition at 200 ppm [7] | inhibition at 200 ppm [8] | pest or weed control at 200 ppm [9] | pest or weed control at 200 ppm [10] | pest or weed control at 200 ppm [11] | inhibition at 200 ppm [12]

CO/N=C(\C)c1cccc(CCCO/N=C2\CCCc3c2nc2cc(OC)ccc2c3C)n1 [P.69]
≥ 80%: pest or weed control at 200 ppm [1] | inhibition at 200 ppm [2] | inhibition at 200 ppm [3] | inhibition at 200 ppm [4] | pest or weed control at 200 ppm [5] | inhibition at 200 ppm [6] | inhibition at 200 ppm [7] | inhibition at 200 ppm [8] | pest or weed control at 200 ppm [9] | pest or weed control at 200 ppm [11] | inhibition at 200 ppm [12]

CO/N=C(\C)c1cccc(CCCO/N=C(\C)c2cc(C)cc(C)n2)n1 [P.10]
≥ 80%: pest or weed control at 200 ppm [1] | inhibition at 200 ppm [2] | inhibition at 200 ppm [3] | inhibition at 200 ppm [4] | pest or weed control at 200 ppm [5] | inhibition at 200 ppm [6] | inhibition at 200 ppm [7] | inhibition at 200 ppm [8] | pest or weed control at 200 ppm [9] | pest or weed control at 200 ppm [10] | pest or weed control at 200 ppm [11] | inhibition at 200 ppm [12]

CCc1cccc(/C(C)=N/OCCCc2cccc(/C(C)=N/OC)n2)n1 [P.19]
≥ 80%: inhibition at 200 ppm [3] | inhibition at 200 ppm [4] | inhibition at 200 ppm [7] | pest or weed control at 200 ppm [9] | pest or weed control at 200 ppm [10] | pest or weed control at 200 ppm [11] | inhibition at 200 ppm [12]

CON=C(c1ccccc1)c1cccc(CCCO/N=C(\C)c2cccc(C)n2)n1 [P.24]
≥ 80%: pest or weed control at 200 ppm [1] | inhibition at 200 ppm [2] | inhibition at 200 ppm [3] | inhibition at 200 ppm [4] | pest or weed control at 200 ppm [5] | inhibition at 200 ppm [6] | inhibition at 200 ppm [7] | inhibition at 200 ppm [8] | pest or weed control at 200 ppm [9] | pest or weed control at 200 ppm [10] | pest or weed control at 200 ppm [11] | inhibition at 200 ppm [12]

CO/N=C(\C)c1cccc(CCCO/N=C(/c2ccccn2)c2ncc(C(F)(F)F)cc2Cl)n1 [P.51]
≥ 80%: inhibition at 200 ppm [2] | inhibition at 200 ppm [3] | inhibition at 200 ppm [4] | inhibition at 200 ppm [6] | inhibition at 200 ppm [7] | inhibition at 200 ppm [8] | pest or weed control at 200 ppm [11] | inhibition at 200 ppm [12]

CO/N=C(\C)c1cccc(CCCO/N=C2\CCCc3ccc(OC)nc32)n1 [P.56]
≥ 80%: inhibition at 200 ppm [2] | inhibition at 200 ppm [3] | inhibition at 200 ppm [4] | pest or weed control at 200 ppm [5] | inhibition at 200 ppm [6] | inhibition at 200 ppm [7] | inhibition at 200 ppm [8] | pest or weed control at 200 ppm [9] | pest or weed control at 200 ppm [11] | inhibition at 200 ppm [12]

CO/N=C(\C)c1cccc(CCCO/N=C(\C)c2cccc(C)n2)n1 [P.12]
≥ 80%: pest or weed control at 200 ppm [1] | inhibition at 200 ppm [2] | inhibition at 200 ppm [3] | inhibition at 200 ppm [4] | pest or weed control at 200 ppm [5] | inhibition at 200 ppm [6] | inhibition at 200 ppm [7] | inhibition at 200 ppm [8] | pest or weed control at 200 ppm [9] | pest or weed control at 200 ppm [10] | pest or weed control at 200 ppm [11] | inhibition at 200 ppm [12]

C=CCOCCCc1cccc(/C(C)=N/OCCCc2cccc(/C(C)=N/OC)n2)n1 [P.74]
≥ 80%: inhibition at 200 ppm [3] | inhibition at 200 ppm [4] | pest or weed control at 200 ppm [13] | pest or weed control at 200 ppm [5] | inhibition at 200 ppm [6] | inhibition at 200 ppm [7] | inhibition at 200 ppm [8] | pest or weed control at 200 ppm [10] | pest or weed control at 200 ppm [11]

CO/N=C(\C)c1cccc(CC(C)CO/N=C(\C)c2cccc(C)n2)n1 (centres unmarked) [P.03]
≥ 80%: pest or weed control at 200 ppm [1] | inhibition at 200 ppm [2] | inhibition at 200 ppm [3] | inhibition at 200 ppm [4] | pest or weed control at 200 ppm [5] | inhibition at 200 ppm [7] | inhibition at 200 ppm [8] | pest or weed control at 200 ppm [9] | pest or weed control at 200 ppm [10] | pest or weed control at 200 ppm [11] | inhibition at 200 ppm [12]

COCCCc1cccc(/C(C)=N/OCCCc2cccc(/C(C)=N/OC)n2)n1 [P.76]
≥ 80%: inhibition at 200 ppm [2] | inhibition at 200 ppm [3] | inhibition at 200 ppm [4] | pest or weed control at 200 ppm [13] | inhibition at 200 ppm [6] | inhibition at 200 ppm [7] | inhibition at 200 ppm [8] | pest or weed control at 200 ppm [10] | pest or weed control at 200 ppm [11]

CO/N=C(\C)c1cccc(CCCO/N=C2\CCCc3c2nc2ccccc2c3Cl)n1 [P.95]
≥ 80%: inhibition at 200 ppm [2] | inhibition at 200 ppm [3] | inhibition at 200 ppm [4] | inhibition at 200 ppm [6] | inhibition at 200 ppm [7] | inhibition at 200 ppm [8] | pest or weed control at 200 ppm [10] | pest or weed control at 200 ppm [11] | inhibition at 200 ppm [12]

From US20140309244A1, “NOVEL MICROBIOCIDES” (SYNGENTA PARTICIPATIONS AG, priority 2010, published 2014)
